Where two headings read alike, the source gives them in different places.
Legend:
[1] = amide bond, 28-membered ring, HATU/NMM, DMF
[2] = amide bond; 28-membered ring

Row | Compound | ring closure, isolated yield [2] [%] | also measured
1 | CC[C@H](C)[C@@H]1NC(=O)[C@@H](CCCN(C(=N)NC(=O)OCc2ccccc2)C(=O)OCc2ccccc2)NC(=O)[C@H](CC(C)C)NC(=O)[C@H]([C@H](O)C(C)C)NC(=O)[C@@H](NC(=O)[C@H](CC(C)(C)C)NC(=O)[C@@H](CC(C)(C)C)NC(=O)OCc2ccccc2)[C@@H](c2ccccc2)NC(=O)[C@H](CO)NC(=O)[C@H](CC(N)=O)NC(=O)CNC(=O)[C@H]([C@H](C)O)NC1=O |  | ring closure, yield after HPLC ([1]; from Z-dAla(3-tBu)-Ala(3-tBu)-(3R)3-amino-Phe(free 3-NH2)-(3R)3-OH-Leu-Leu-dArg(Z)2-Ile-aThr-Gly-Asn-Ser-OH, 1.1 mM, 25.0 °C): 90.1%
2 | CC[C@H](C)[C@@H]1NC(=O)[C@@H](CCCNC(=N)N)NC(=O)[C@H](CC(C)C)NC(=O)[C@H]([C@H](O)C(C)C)NC(=O)[C@@H](NC(=O)OCc2ccccc2)[C@@H](c2ccc(N(C)C)cc2)NC(=O)[C@H](CO)NC(=O)[C@H]([C@H](O)C(N)=O)NC(=O)CNC(=O)[C@H]([C@H](C)O)NC1=O |  | ring closure, yield after HPLC ([1]; from H-[N3-amine free, N2-Cbz-(3R)-3-amino-Phe(4-NMe2)]-[(3R)-3-OH-Leu]-Leu-dArg-Ile-aThr-Gly-[(3S)-3-OH-Asn]-Ser-OH, 9.3 mM): 52%
3 | CC[C@H](C)[C@@H]1NC(=O)[C@@H](CCCNC(=N)N)NC(=O)[C@H](CC(C)C)NC(=O)[C@H]([C@H](O)C(C)C)NC(=O)[C@@H](NC(=O)OCc2ccccc2)[C@@H](c2ccccc2)NC(=O)[C@H](CO)NC(=O)[C@H](CO)NC(=O)CNC(=O)[C@H]([C@H](C)O)NC1=O |  | ring closure, yield after HPLC ([1]; from Z-Phe((3R)-3-NH2)-Leu((3R)-3-OH)-Leu-dArg-Ile-aThr-Gly-Ser-Ser-OH, 19.4 mM, 0.0 °C): 43%
4 | CC[C@H](C)[C@@H]1NC(=O)[C@@H](CCCNC(=N)N)NC(=O)[C@H](CC(C)C)NC(=O)[C@H]([C@H](O)C(C)C)NC(=O)[C@@H](NC(=O)OCc2ccccc2)[C@@H](c2ccccc2)NC(=O)[C@H](CO)NC(=O)[C@H](Cc2ccccc2)NC(=O)CNC(=O)[C@H]([C@H](C)O)NC1=O |  | ring closure, yield after HPLC ([1]; from Z-Phe((3R)-3-NH2)-Leu((3R)-3-OH)-Leu-dArg-Ile-aThr-Gly-Phe-Ser-OH?, 0.0 °C): 96%
5 | CC[C@H](C)[C@@H]1NC(=O)[C@@H](CCCNC(=N)N)NC(=O)[C@H](CC(C)C)NC(=O)[C@H]([C@H](O)C(C)C)NC(=O)[C@@H](NC(=O)OCc2ccccc2)[C@@H](c2ccccc2)NC(=O)[C@H](CO)NC(=O)[C@H](Cc2cccnc2)NC(=O)CNC(=O)[C@H]([C@H](C)O)NC1=O |  | ring closure, yield after HPLC ([1]; from Z-Phe((3R)-3-NH2)-Leu((3R)-3-OH)-Leu-dArg-Ile-aThr-Gly-Ala(3-pyridyl)-Ser-OH, 0.0 °C): 51%
6 | CC[C@H](C)[C@@H]1NC(=O)[C@@H](CCCNC(=N)N)NC(=O)[C@H](CC(C)C)NC(=O)[C@H]([C@H](O)C(C)C)NC(=O)[C@@H](NC(=O)OCc2ccccc2)[C@@H](c2ccccc2)NC(=O)[C@H](CO)NC(=O)[C@H]([C@@H](C)O)NC(=O)CNC(=O)[C@H]([C@H](C)O)NC1=O |  | ring closure, yield after HPLC ([1]; from Z-Phe((3R)-3-NH2)-Leu((3R)-3-OH)-Leu-dArg-Ile-aThr-Gly-Thr-Ser-OH?, 0.0 °C): 65%
7 | CC[C@H](C)[C@@H]1NC(=O)[C@@H](CCCNC(=N)N)NC(=O)[C@H](CC(C)C)NC(=O)[C@H]([C@H](O)C(C)C)NC(=O)[C@@H](NC(=O)OCc2ccccc2)[C@@H](c2ccccc2)NC(=O)[C@H](CO)NC(=O)[C@H]([C@H](O)C(N)=O)NC(=O)CNC(=O)[C@H]([C@H](C)O)NC1=O |  | ring closure, yield after HPLC ([1]; from Z-(3R)-3-amino-Phe-(3R)-3-hydroxy-Leu-Leu-dArg-Ile-alloThr-Gly-(3S)-3-hydroxy-Asn-Ser-OH, 1.27 mM, 0.0 °C): 78.3%
8 | CC[C@H](C)[C@@H]1NC(=O)[C@@H](CCCNC(=N)N)NC(=O)[C@H](CC(C)C)NC(=O)[C@H]([C@H](O)C(C)C)NC(=O)[C@@H](NC(=O)[C@H](CC(C)(C)C)NC(=O)[C@@H](CC(C)(C)C)NC(=O)OCc2ccccc2)[C@@H](c2ccccc2)NC(=O)[C@H](CO)NC(=O)[C@H](CC(N)=O)NC(=O)CNC(=O)[C@H]([C@H](C)O)NC1=O |  | ring closure, yield after HPLC ([1]; from Z-dAla(3-tBu)-Ala(3-tBu)-(3R)3-amino-Phe(free 3-NH2)-(3R)3-OH-Leu-Leu-dArg-Ile-aThr-Gly-Asn-Ser-OH, 1.14 mM, 4.0 °C): 80%
9 | CC[C@H](C)[C@@H]1NC(=O)[C@@H](CCCNC(=N)N)NC(=O)[C@H](CC(C)C)NC(=O)[C@H]([C@H](O)C(C)C)NC(=O)[C@@H](NC(=O)[C@H](CC(C)C)NC(=O)[C@@H](CC(C)C)NC(=O)OCc2ccccc2)[C@@H](c2ccccc2)NC(=O)[C@H](CO)NC(=O)[C@H](CC(N)=O)NC(=O)CNC(=O)[C@H]([C@@H](C)O)NC1=O |  | ring closure, yield after HPLC ([1]; from Z-dLeu-Leu-(3R)3-amino-Phe(free 3-NH2)-(3R)3-OH-Leu-Leu-dArg-Ile-Thr-Gly-Asn-Ser-OH, 25.0 °C): 88.3%
10 | CC[C@H](C)[C@@H]1NC(=O)[C@@H](CCCNC(=O)OCc2ccccc2)NC(=O)[C@H](CC(C)C)NC(=O)[C@H]([C@H](O)C(C)C)NC(=O)[C@@H](NC(=O)[C@H](CC(C)(C)C)NC(=O)[C@@H](CC(C)(C)C)NC(=O)OCc2ccccc2)[C@@H](c2ccccc2)NC(=O)[C@H](CO)NC(=O)[C@H](CC(N)=O)NC(=O)CNC(=O)[C@H]([C@H](C)O)NC1=O |  | ring closure, yield after HPLC ([1]; from Z-dAla(3-tBu)-Ala(3-tBu)-(3R)3-amino-Phe(free 3-NH2)-(3R)3-OH-Leu-Leu-dOrn(Z)-Ile-aThr-Gly-Asn-Ser-OH, 4.0 °C): 91.3%
11 | [(3R)-N^2-(Benzyloxycarbonyl)-3-amino-L-phenylalanyl]-[(3R)-3-hydroxy-L-leucyl]-L-norleucyl-D-arginyl)-L-isoleucyl-L-allothreonyl-glycyl-L-alanyl-L-serine C^1.9-N^3.1-lactam trifluoroacetate | 80 | 
12 | [(3R)-N^2-(Benzyloxycarbonyl)-3-amino-L-phenylalanyl]-[(3R)-3-hydroxy-L-leucyl]-L-norvalyl-D-arginyl-L-isoleucyl-L-allothreonyl-glycyl-L-alanyl-L-serine C^1.9-N^3.1-lactam trifluoroacetate | 100 | 
13 | [(3R)-N^2-(Benzyloxycarbonyl)-3-amino-L-phenylalanyl]-[(3R)-3-hydroxy-L-leucyl]-L-norvalyl-D-arginyl-L-isoleucyl-L-allothreonyl-glycyl-L-seryl-L-serine C^1.9-N^3.1-lactam trifluoroacetate | 77 | 
14 | [(3R)-N^2-(Benzyloxycarbonyl)-3-amino-L-phenylalanyl]-[(3R)-3-hydroxy-L-leucyl]-L-valyl-D-arginyl-L-isoleucyl-L-allothreonyl-glycyl-L-seryl-L-serine C^1.9-N^3.1-lactam trifluoroacetate | 100 | 
15 | [(3R)-N^2-(Benzyloxycarbonyl)-3-amino-L-phenylalanyl]-[(3R)-3-hydroxy-L-leucyl]-[3-tertbutyl-L-alanyl]-D-arginyl-L-isoleucyl-L-allothreonyl-glycyl-L-seryl-L-serine C^1.9-N^3.1-lactam trifluoroacetate | 90 | 
16 | {(3R)-N^2-[(9H-Fluoren-9-ylmethoxy)carbonyl]-3-amino-L-phenylalanyl}-[(3R)-3-hydroxy-L-leucyl]-L-leucyl-(N^5-benzyloxycarbonyl-D-ornithyl)-L-isoleucyl-L-allothreonyl-glycyl-L-seryl-L-serine C^1.9-N^3.1-lactam trifluoroacetate | 48 | 
17 | {(3R)-N^2-[(9H-Fluoren-9-ylmethoxy)carbonyl]-3-amino-L-phenylalanyl}-[(3R)-3-hydroxy-L-leucyl]-L-leucyl-(N^6-benzyloxycarbonyl-D-lysyl)-L-isoleucyl-L-allothreonyl-glycyl-L-seryl-L-serine C^1.9-N^3.1-lactam trifluoroacetate | 78 | 
18 | {(3R)-N^2-[(9H-Fluoren-9-ylmethoxy)carbonyl]-3-amino-L-phenylalanyl}-[(3R)-3-hydroxy-L-leucyl]-L-leucyl-D-arginyl-L-isoleucyl-L-allothreonyl-glycyl-(N^5-benzyloxycarbonyl-L-ornithyl-L-serine C^1.9-N^3.1-lactam trifluoroacetate | 88 | 
19 | {(3R)-N^2-[(9H-Fluoren-9-ylmethoxy)carbonyl]-3-amino-L-phenylalanyl}-[(3R)-3-hydroxy-L-leucyl]-L-leucyl-D-arginyl-L-isoleucyl-L-allothreonyl-glycyl-[(2S)-2-amino-4-benzyloxycarbonylaminobutyryl]-L-serine C^1.9-N^3.1-lactam trifluoroacetate | 66 | 
20 | {(3R)-N^2-[(9H-Fluoren-9-ylmethoxy)carbonyl]-3-amino-L-phenylalanyl}-[(3R)-3-hydroxy-L-leucyl]-L-leucyl-[(2R)-2-amino-4-benzyloxycarbonylaminobutyryl]-L-isoleucyl-L-allothreonyl-glycyl-L-seryl-L-serine C^1.9-N^3.1-lactam trifluoroacetate | 85 | 

— patent US8076285B2, “Lysobactin amides” (Aicuris GmbH & Co. KG, priority 2006, dated 2011)
